In brackets after ≈: the same amount, converted by molar mass. Entries after “also recorded” stand apart in the source; their conditions may differ. Like-named read-outs stand apart in the source and are kept apart here.
How the values were obtained:
HIV-1IIIB = assay: Syncytia assay (CPE inhibition), HIV-1IIIB in C8166 cells; type: cell-based
Description: (§1) In the presence of 100 μL of various concentrations of the tested compound, C8166 cells (4 × 10^5cells/mL) were infected with virus (HIV-1IIIB, HIV-2CBL-20 or HIV-2ROD) at a multiplicity of infection (M.O.I.) of 0.06. The final volume per well was 200 μL. Control assays were performed without the testing compounds in HIV-1 IIIB infected and uninfected cultures. AZT was included as positive control. After three days of culture, the cytopathic effect (CPE) was measured by counting the number of syncytia in each well under an inverted microscope. EC50 was then calculated.

HIV-1KM018 = assay: Inhibition of HIV-1 p24 antigen production in PBMC; type: cell-based
Description: Adequate numbers of PHA activated normal PBMC were incubated with HIV-1KM018 (M.O.I. = 0.03) in presence of varying concentrations of the compound. After 3 h of virus adsorption, the cells were washed twice with PBS and incubated with or without various concentration of compound in culture medium supplemented with 50 U/mL human recombinant IL-2 at 1.2 × 10^6 cells/mL for seven days. Half of the medium was changed with corresponding compound concentrations on the third day. At seven days post-infection, HIV-1 p24 antigen in cell-free culture supernatants was analyzed by ELSIA. The percent inhibition of HIV-1 p24 antigen production in PBMC was calculated.

C8166 = assay: MTT-based cytotoxicity assay, C8166; type: cell-based; conditions: C8166, MTT
Description: (§2) Cellular toxicity of compounds 1–3 was assessed by the MTT method, as described previously. Briefly, cells were seeded on a microtiter plate in the absence or presence of various concentrations of compounds in triplicate and incubated at 37 °C in a humid atmosphere of 5% CO2 for three days. Twenty microliters of MTT reagent (5 mg/mL in PBS) was added to each well, then incubated at 37 °C for 4 h. One hundred microliters of 50% DMF-20% SDS was then added. After the formazan was dissolved completely, the plates were read on a Bio-Tek ELx 800 ELISA reader at 595 nm/630 nm. The results were shown as absorbance values, and the CC50 was calculated.

PBMC = assay: MTT-based cytotoxicity assay, PBMC; type: cell-based; conditions: PBMC, MTT
Description: (§3) Cell lines (C8166, H9, H9/HIV-1IIIB, Jurkat, Jurkat/HIV-1IIIB) were maintained in RPMI-1640 supplemented with 10% heat-inactivated newborn calf serum (Gibco, Auckland, New Zealand). The cells used in all experiments were in log-phase growth. PBMC from healthy donors were isolated by Ficoll-Hypaque centrifugation, then incubated in complete medium containing 5μg/mL phytohemagglutinin (PHA) (Sigma) and 50 U/mL human recombinant IL-2 for 72 h prior to use for antiviral assays. The laboratory-derived viruses (HIV-1IIIB, HIV-2ROD, HIV-2CBL-20) were obtained from the Medical Research Council (MRC), AIDS Reagent Project (UK) and the NIH AIDS Research and Reference Reagent Program (USA). The clinically isolated HIV-1KM018 was obtained from a naive HIV-1-infected individual in Yunnan Province, China, as described. The 50% HIV-1 tissue culture infectious dose (TCID50) was determined and calculated by the Reed and Muench method. Virus stocks were stored in aliquots at −70 °C.
as §2

HIV-2CBL-20 = assay: Syncytia assay (CPE inhibition), HIV-2CBL-20 in C8166 cells; type: cell-based
Description: as §1

HIV-2ROD = assay: Syncytia assay (CPE inhibition), HIV-2ROD in C8166 cells; type: cell-based
Description: as §1

[1] = MTT-based cytotoxicity assay, C8166; type: cell-based; conditions: human
Description: as §2

[2] = MTT-based cytotoxicity assay, PBMC; type: cell-based; conditions: human
Description: as §3, §2

equine anemia virus = tested on: equine anemia virus; design: method as in PMID 11725078; conditions: cited from earlier work
HIV = tested on: HIV; design: method as in PMID 11725078; conditions: cited from earlier work
HIV-1IIIB/H9 = assay: Co-cultivation assay (cell-to-cell fusion C8166 with H9/HIV-1IIIB); type: cell-based
Description: Cell-to-cell fusion between normal C8166 cells and H9 cells chronically infected withHIV-1IIIB was quantified under an inverted microscope. First, 3 × 10^4 C8166 cells co-cultured with 1 × 10^4 H9/HIV-1IIIB cells in the presence or absence of the compound at varying concentrations. They were incubated at 37 °C in a humidified atmosphere of 5% CO2. Dextran sulfate (DS) was used as positive control. After 6 h incubation, the number of syncytia was scored under an inverted microscope.

H9/HIV-1IIIB [3] = assay: ELISA in chronically infected H9/HIV-1IIIB cells; type: cell-based; conditions: Human immunodeficiency virus 1
Description: Chronically infected cell with HIV-1IIIB (H9/HIV-1IIIB) were washed three times with PBS to remove free virus particle. 200 µL/well (3 × 10^5 cells/mL) of the cell suspension was cultured for three days in a 96-well culture plate with different concentrations of compound. The p24 antigen in the culture supernatants was assayed by ELISA.

[4] = biological target: T1, HIV-1 reverse transcriptase (Human immunodeficiency virus type 1 group M subtype B, UniProt P04585); assay: Inhibition assay of recombinant HIV-1 RT activity (ELISA); type: biochemical
T1 construct: purchased Roche, Mannheim, Germany
Description: HIV-1 reverse transcriptase (RT) activity was measured by the ELISA RT kit using a commercially available kit (Roche, Mannheim, Germany) according to the instructions of the manufacturer. The compounds were incubated with DIG-labeled reaction mixture at 37 °C for 2 h, then anti-DIG-POD solution was added, followed by substrate ABTS. Foscarnet was used as a positive control. The absorbency at 405 nm/490 nm was read on the Bio-Tek ELx 800 ELISA reader.

HIV-1 protease = biological target: T2, HIV-1 protease (Human immunodeficiency virus type 1 group M subtype B, UniProt P04585); assay: Inhibition assay of recombinant HIV-1 protease activity (fluorescent); type: biochemical
T2 construct: The recombinant HIV-1 protease (PR) was expressed and purified, as previously described; made in house
Description: The recombinant HIV-1 protease (PR) was expressed and purified, as previously described. HIV-1 PR was diluted in reaction buffer. The compounds were added and incubated for 30 min at room temperature. Fluorescent substrate DABCYL-γ-Abu-Ser-Gln-Asn-Tyr-Pro-Ile-Val-Gln-EDANS (Anaspec, San Jose, USA) was added to initiate the reaction. The mixture was allowed to react for 90 min and the change of the fluorescent signal was monitored. Negative (double distilled water) and positive (1 μM indinavir) controls were included. The percent inhibition of PR activity was calculated.

HIV-1 integrase = biological target: T3, HIV-1 integrase (Human immunodeficiency virus type 1 group M subtype B, UniProt P04585); assay: Binding to HIV-1 integrase by SPR (BIAcore)
T3 construct: Integrase was immobilized on the surface of the chip
Description: The interaction between the compound and HIV-1 integrase (IN) was determined by SPR using a BIAcore 3000TM biosensor system as previously described. Integrase was immobilized on the surface of the chip. To allow association, various concentrations of the compound diluted in HBS-EP was applied to a chip containing immobilized integrase. Dissociation of the compound from the integrase was monitored in real-time after application of buffer to wash the chip and the kinetic rate constants for dissociation (Kd) was obtained by fitting the real-time data using BIA evaluation software.

[5] = MTT-based cytotoxicity assay, H9/HIV-1IIIB; type: cell-based; conditions: human, H9/HIV-1IIIB cells; H9/HIV-1IIIB, MTT, 3 days
Description: as §2

H9/HIV-1IIIB [6] = assay: MTT-based cytotoxicity assay, H9/HIV-1IIIB; type: cell-based; conditions: 3 days of incubation; listed as 7-Hydroxymethyl-CPT
Description: as §2

[7] = MTT-based cytotoxicity assay, Jurkat/HIV-1IIIB; type: cell-based; conditions: human, Jurkat/HIV-1IIIB cells
Description: as §2

[8] = design: method as in PMID 12775425; conditions: cited from earlier work
HIV-1 [9] = conditions: freshly infected U937 monocytoid cells; cited from earlier work
HIV-1 [10] = tested on: HIV-1; design: method as in PMID 9453250; conditions: latently infected T cell clone; cited from earlier work
HIV-1 [11] = tested on: HIV-1; design: method as in PMID 11424110; conditions: by inducing selective apoptosis of HIV infected cells; cited from earlier work
[12] = Human immunodeficiency virus 1, 72 h, C8166, HIV-1IIIB, syncytia, 3 days, read-out: EC50
[13] = Human immunodeficiency virus 2, 72 h, C8166, HIV-2CBL-20, syncytia, 3 days, read-out: EC50
[14] = Human immunodeficiency virus 2, 72 h, C8166, HIV-2ROD, syncytia, 3 days, read-out: EC50
[15] = Human immunodeficiency virus 1, 168 h, PBMC, HIV-1KM018, p24, 7 days, read-out: EC50
[16] = cell-free system, in words, listed as 7-hydroxymethyl-CPT
[17] = Human immunodeficiency virus 2, C8166, 72 h

Cc1cn([C@H]2C[C@H](N=[N+]=[N-])[C@@H](CO)O2)c(=O)[nH]c1=O [AZT, reference compound]
EC50 (HIV-1IIIB; C8166, HIV-1IIIB, syncytia, 3 days): 0.003 ± 0.0003 µg/mL (≈ 0.0112 µM) | EC50 (HIV-1KM018; PBMC, HIV-1KM018, p24, 7 days): 0.0024 ± 0.0003 µg/mL (≈ 0.00898 µM) | CC50 (C8166): 1.12(mg/ml) | CC50 (PBMC): 0.45(mg/ml

CC[C@@]1(O)C(=O)OCc2c1cc1n(c2=O)Cc2cc3ccccc3nc2-1 [Compound 1, Camptothecin]
EC50 (HIV-1IIIB; [12]): 0.0057 ± 0.0001 µg/mL (≈ 0.0164 µM) | EC50 (HIV-2CBL-20; [13]): 0.004 ± 0.0003 µg/mL (≈ 0.0115 µM) | EC50 (HIV-2ROD; [14]): 0.0067 ± 0.0001 µg/mL (≈ 0.0192 µM) | EC50 (HIV-1KM018; [15]): 0.0074 ± 0.0011 µg/mL (≈ 0.0212 µM) | CC50 at 3 days ([1]; C8166 cells, C8166, MTT, 3 days, read-out: CC50): 0.138 µg/mL (≈ 0.396 µM) | CC50 (C8166; 3 days): 137.8 ± 7.8 ng/mL (≈ 0.396 µM) | CC50 at 3 days ([2]; PBMC (peripheral blood mononuclear cells), PHA-stimulated, PBMC, MTT, read-out: CC50): 0.0759 ± 0.0131 µg/mL (≈ 0.218 µM) | inhibition of replication of equine anemia virus (equine anemia virus): weakly inhibit | inhibition of replication of HIV (HIV): weakly inhibit

CC[C@@]1(O)C(=O)OCc2c1cc1n(c2=O)Cc2c-1nc1ccccc1c2CO [Compound 3, 7-Hydroxymethylcamptothecin]
EC50 (HIV-1IIIB; [12]): 0.0008 ± 0.0002 µg/mL (≈ 0.00211 µM) | EC50 (HIV-2CBL-20; [13]): 0.0005 ± 0.0001 µg/mL (≈ 0.00132 µM) | EC50 (HIV-2ROD; [14]): 0.0024 ± 0.0002 µg/mL (≈ 0.00634 µM) | EC50 (HIV-1KM018; [15]): 0.0009 ± 0.0001 µg/mL (≈ 0.00238 µM) | CC50 at 3 days [1]: 0.159 ± 0.0137 µg/mL (≈ 0.419 µM) | CC50 at 3 days [2]: 0.06 ± 0.0101 µg/mL (≈ 0.159 µM) | EC50 (HIV-1IIIB/H9; Human immunodeficiency virus 1, C8166 with HIV-1IIIB/H9, co-cultivation, 6 h): > 2 µg/mL | inhibition of viral cell-to-cell transmission (HIV-1IIIB/H9; in words): no inhibition | EC50 (H9/HIV-1IIIB [3]): > 17 µg/mL | EC50 [4]: > 44.9 µM | inhibition of reverse transcriptase [4, 16]: no inhibition; also recorded: did not show any inhibition | EC50 (HIV-1 protease): > 106 µM | inhibition of protease (HIV-1 protease; [16]): no inhibition; also recorded: did not show any inhibition | Kd (HIV-1 integrase): 64.9 µM | inhibition of integrase (HIV-1 integrase; [16]): no inhibition; also recorded: did not show any inhibition | CC50 at 3 days [5]: 0.0157 µg/mL (≈ 0.0415 µM) | selective killing of chronically infected cells (H9/HIV-1IIIB compared with uninfected H9) (H9/HIV-1IIIB [6]): no selective killing | CC50 at 3 days [7]: 0.041 µg/mL (≈ 0.108 µM)

CC[C@@]1(O)C(=O)OCc2c1cc1n(c2=O)Cc2cc3cc(O)ccc3nc2-1 [Compound 2, 10-hydroxycamptothecin]
EC50 (HIV-1IIIB; Human immunodeficiency virus 1, C8166, 72 h): 0.0334 ± 0.0003 µg/mL (≈ 0.0917 µM) | EC50 (HIV-2CBL-20; [17]): 0.0132 ± 0.001 µg/mL (≈ 0.0362 µM) | EC50 (HIV-2ROD; [17]): 0.025 ± 0.0009 µg/mL (≈ 0.0686 µM) | EC50 (HIV-1KM018; Human immunodeficiency virus 1, PBMC, 168 h): 0.0105 ± 0.0004 µg/mL (≈ 0.0288 µM) | CC50 at 3 days ([1]; C8166, MTT, 3 days, read-out: CC50): 0.141 ± 0.0097 µg/mL (≈ 0.387 µM) | CC50 at 3 days ([2]; PBMC, MTT, read-out: CC50): 0.0363 ± 0.0118 µg/mL (≈ 0.0996 µM)

CC[C@@]1(O)C(=O)OCc2c1cc1n(c2=O)Cc2cc3c(CN(C)C)c(O)ccc3nc2-1 [Topotecan]
treatment of AIDS-related progressive multifocal leukoencephalopathy [8]: efficient

CC[C@@]1(O)C(=O)OCc2c1cc1n(c2=O)Cc2cc3c([N+](=O)[O-])cccc3nc2-1 [9-nitrocamptothecin (9NC), 9-nitrocamptothecin]
inhibition of HIV-1 replication (HIV-1 [9]): showed inhibition | tumor necrosis factor-mediated activation of HIV-1 (HIV-1 [10]): inhibited | HIV-1 replication (HIV-1 [11]): reduced

Source: publication PMC6256925, “The Anti-HIV Actions of 7- and 10-Substituted Camptothecins” (Molecules, 2009)
